Where two headings read alike, the source gives them in different places.
Assay: Pharmacokinetic study of Compound A alone and in combination with Indinavir in healthy human males (Example 11)
Type: in vivo
Conditions: for Cmax / Tmax / AUC / concentration at 8 h / concentration at 12 h / concentration at 24 h: male, human, plasma, po, fasted; for Cmax / Tmax: arithmetic mean; for AUC: arithmetic mean (CV %); for concentration at 8 h: plasma 8 hours after dosing, read-out: C8 hrs; for concentration at 12 h: plasma 12 hours after dosing, read-out: C12 rs; for concentration at 24 h: plasma 24 hours after dosing, read-out: C24 hrs
Procedure: A double-blind, single-rising dose, alternating two-panel, four-period, placebo-controlled study was conducted for Compound A alone and in combination with Indinavir in healthy adult males in the fasted state. […] All of the doses of Compound A were administered as the sulfate salt form of Compound A. All of the Compound A doses were oral suspensions of the sulfate salt form in sterile water, except that the 600-mg doses administered to Panel B in the fourth period were tablets. Indinavir was administered in the form of CRIXIVAN® capsules. The safety of the subjects was monitored prior and subsequent to dosing by clinical adverse event reporting, measurement of vital signs, physical examinations, blood and urine laboratory safety tests, and ECGs. Plasma concentrations of Compound A were determined predose and at 0.5, 1, 1.5, 2, 3, 4, 6, 8, 12, 16, 20, 24, 30, 36 and 48 hours following each single dose in each period, using a reverse-phase HPLC column switching method with fluorescence detection.

[1] = 200 mg of Compound A with 800 mg of Indinavir relative to 200 mg of Compound A alone (Table 3 vs Table 2)
[2] = 200 mg Compound A + 800 mg IDV (Indinavir) co-administered, single oral dose, n=6
[3] = 200 mg Compound A + 1200 mg IDV (Indinavir) co-administered, single oral dose, n=6
[4] = 400 mg Compound A + 800 mg IDV (Indinavir) co-administered, single oral dose, n=6
[5] = 600 mg Compound A + 800 mg IDV (Indinavir) co-administered, single oral dose, n=8
[6] = 600 mg, 600 mg (tablets) single oral dose, sulfate salt, n=8
[7] = 600 mg, 600 mg single oral dose, suspension of sulfate salt, n=8
[8] = 1600 mg, 1600 mg single oral dose, suspension of sulfate salt, n=6
[9] = 2000 mg, 2000 mg single oral dose, suspension of sulfate salt, n=8

AUC of Compound A higher for co-administration with Indinavir relative to Compound A alone [1]: about 30 x | C8 hrs higher for co-administration with Indinavir relative to Compound A alone [1]: ~46 x | Cmax higher for co-administration with Indinavir relative to Compound A alone [1]: about 19 x | AUC higher than for administration of Compound A alone (600 mg of Compound A in combination with 800 mg of Indinavir versus Compound A alone): about 18 fold | Cmax [2]: 1580 nM | Tmax [2]: 2.2 h | AUC [2]: 7.45 µM·h | concentration at 8 h [2]: 232 nM | concentration at 12 h [2]: 70 nM | concentration at 24 h [2]: 8 nM | Cmax [3]: 1560 nM | Tmax [3]: 2.3 h | AUC [3]: 9.22 µM·h | concentration at 8 h [3]: 416 nM | concentration at 12 h [3]: 107 nM | concentration at 24 h [3]: 10 nM | Cmax [4]: 2350 nM | Tmax [4]: 2.5 h | AUC [4]: 12.2 µM·h | concentration at 8 h [4]: 399 nM | concentration at 12 h [4]: 124 nM | concentration at 24 h [4]: 20 nM | Cmax [5]: 3880 nM | Tmax [5]: 3.3 h | AUC [5]: 25.2 µM·h | concentration at 8 h [5]: 1190 nM | concentration at 12 h [5]: 352 nM | concentration at 24 h [5]: 65 nM | Cmax [6]: 211 nM | Tmax [6]: 1.5 h | AUC [6]: 1.42 µM·h | concentration at 8 h [6]: 50 nM | concentration at 12 h [6]: 38 nM | concentration at 24 h [6]: 17 nM | Cmax [7]: 208 nM | Tmax [7]: 1.4 h | AUC [7]: 1.41 µM·h | concentration at 8 h [7]: 55 nM | concentration at 12 h [7]: 39 nM | concentration at 24 h [7]: 13 nM | Cmax [8]: 613 nM | Tmax [8]: 2 h | AUC [8]: 4.72 µM·h | concentration at 8 h [8]: 163 nM | concentration at 12 h [8]: 93 nM | concentration at 24 h [8]: 46 nM | Cmax [9]: 1270 nM | Tmax [9]: 2.5 h | AUC [9]: 10.4 µM·h | concentration at 8 h [9]: 444 nM | concentration at 12 h [9]: 250 nM | concentration at 24 h [9]: 105 nM
Compound: CC(C)(C)NC(=O)[C@@H]1CN(Cc2cc3ccccc3o2)CCN1C[C@@H](O)C[C@@H](Cc1ccccc1)C(=O)N[C@H]1c2ccccc2C[C@H]1O [Compound A, N-(2(R)-hydroxy-1(S)-indanyl)-2(R)-phenylmethyl-4-(S)-hydroxy-5-(1-(4-(2-benzo[b]furanylmethyl)-2(S)-N'-(t-butylcarboxamido)-piperazinyl))-pentaneamide]

— EP1044000B1, “COMBINATION THERAPY FOR THE TREATMENT OF AIDS” (MERCK & CO., INC., priority 1997, dated 1999)
